Results as given in patent publication US20250195474A1, “Piezo Inhibition for Wound Healing” (priority 2022, published 2025).
No end group written: not given here.

Legend:
[1] = tested on: human foreskin xenograft wounds; experiment: Human foreskin xenograft wound model; assay type: in vivo; settings: POD 14
Method: For the xenograft model, adult immunocompromised CD-1 nude mice were purchased from The Jackson Laboratory (Bar Harbor, ME). Mice were maintained at the Stanford University Research Animal Facility, SIM-1 Barrier Facility in accordance with Stanford University guidelines. All experiments were performed under an approved APLAC protocol (APLAC #11048). 3 mice were used for each group.
Discarded postnatal human foreskin samples were collected after circumcision at the Lucille Packard Children's Hospital at Stanford under a Stanford University Institutional Review Board (IRB) approved protocol (IRB #45219). Samples were not used if collected >8 hours after circumcision; samples were kept in Dulbecco's Modified Eagle Medium (ThermoFisher Scientific™, Waltham, MA) on ice until grafting. Foreskin was prepared by removal of all subcutaneous tissue, including muscle, and divided into 1 cm sections to be grafted.
Nude mice were induced and maintained with 2-4% isoflurane (Product: 502017, MWI Veterinary Supply Co.®; Boise, ID) at a rate of 2 L/min. While anesthetized, Betadine Surgical Scrub Veterinary (Avrio Health L.P.™, Stamford, CT) and sterile alcohol prep pads (FisherScientific™, Pittsburgh, PA) were used to prepare the dorsum. A 1.2 cm full-thickness excision of dorsal skin was created with forceps and sharp scissors. The foreskin graft was then placed into the full-thickness wound. […]

wounds = experiment: Visium spatial transcriptomic analysis of wounds; assay type: in vivo, mouse
Method: Wound specimens were rapidly harvested and flash frozen in OCT. Using the Visium Tissue Optimization Slide and Reagent Kit, permeabilization time was optimized at a thickness at 10 μm per section and 37 minutes for mouse tissue. Following cryo-sectioning at −20 degrees onto gene expression slides the expression slide and reagent kit was used to produce sequencing libraries. The libraries were then sequences using NextSeq (Illumina). Following demultiplication the raw FASTQ files and histology images were processed by sample with the Space Ranger software for genome alignment. The raw spaceranger output files for each sample was then read into a Seurat class object in R using Seurat's Load10× function. Data was normalized using the SCT transform with default parameters. To ascertain the integration of our scRNAseq and Visium spatial analysis we employed the FindTransferAnchors( ) function from Seurat, which allowed the alignment of data using the two datasets. This cross-platform linkage is performed serially in an unconstrained and constrained fashion.

“GsMTx4 (GCLEFWWKCNPNDDKCCRPKLKCSKLFKLCNFSF; ends and bridges not checked; cysteine pairing not given here; UniProt Q7YT39 47-80, looked up) [P1i]” was tested, and the ECM ultrastructure [1] was “indistinguishable from that of unwounded xenograft skin”, the “differential interaction maps (Visium)” value (wounds; POD 14) was “strong interactions between adipocytes and fibroblasts” and the “fibroblast scRNA-seq cluster 0 (mechanically sensitive) spatial enrichment” value (wounds; POD 14) was “highly enriched in PBS-treated POD 14 wounds compared to P1i or P2i treated wounds”. For the same substance, the “fibroblast scRNA-seq cluster 5 (mechanically naive) spatial presence” value (wounds; POD 14) was “observed”, the “spatial expression of Piezo1, Piezo2, Ptk2 and Yap1” value (wounds; POD 14) was “appeared mostly at the basal region” and the “spatially variable features (gene expression)” value (wounds; POD 14) was “high expression of markers associated with the epidermis including Krt1 and Krt14”. For the same substance, the “adipocyte and epithelial cells in the spatial environment” value (wounds; POD 14, vs PBS) was “enriched”.
